{"source": "patent US10301286B2", "about": "“Piperazine derivative” (Astellas Pharma Inc., priority 2015, dated 2019)", "note": "Structures can show the parent of a compound that is named as a salt."}
{"test_system": "Male SD rats", "experiment": "Rat erection-inducing action", "type": "in vivo", "conditions": "10 mg/kg intravenously, erections up to one hour after administration, vs vehicle, P<0.05", "description": "Male SD rats (Charles River Laboratories Japan, Inc.) were used. A test compound (10 mg/kg) or the vehicle (20% dimethyl acetamide, 10% Cremophor (registered trademark), 70% physiological saline) was administered intravenously through the tail vein. After administration, the rats were transferred to transparent observation cages made of plastic to measure the erection times of up to one hour after administration. The measurements were carried out for five groups (3 to 7 animals per group): vehicle groups, Example compound groups (Ex 87, 88, and 89), and THIQ group, which had been known as an MC4 receptor agonist (J. Med. Chem., 45, 4589-4593 (2002)), as a positive control. For a statistical significance test, Dunnett's multiple comparison test was used for the comparison with vehicle control group, and it was determined whether there was an erection-inducing effect with a statistically significant difference (P<0.05)."}
{"smiles": "Cc1ccc(C[C@@H](C(=O)O)N2CCN(C(=O)[C@@H]3CN(C4CCOCC4)C[C@H]3c3ccc(Cl)cc3F)[C@@H](C)C2)c(F)c1", "note": "[Example 87, (2S)-2-[(3S)-4-{[(3S,4R)-4-(4-chloro-2-fluorophenyl)-1-(tetrahydro-2H-pyran-4-yl)pyrrolidin-3-yl]carbonyl}-3-methylpiperazin-1-yl]-3-(2-fluoro-4-methylphenyl)propanoic acid dihydrochloride]", "erection-inducing effect": "did not exhibit an erection-inducing effect"}
{"smiles": "Cc1cc(C)c(C[C@@H](C(=O)O)N2CCN(C(=O)[C@@H]3CN(C(C)(C)C)C[C@H]3c3ccc(Cl)cc3F)[C@@H](C)C2)c(C)c1", "note": "[Example 89]", "erection-inducing effect": "did not exhibit an erection-inducing effect"}
{"smiles": "Cc1cc(C)c(C[C@@H](C(=O)O)N2CCN(C(=O)[C@@H]3CN(C4CCOCC4)C[C@H]3c3ccc(Cl)cc3F)[C@@H](C)C2)c(F)c1", "note": "[Example 88]", "erection-inducing effect": "did not exhibit an erection-inducing effect"}
